Test results as given in paper PMC5218480 (PLoS ONE, 2017).

Test system: MV-4-11 cells
Assay: Gene expression microarray analysis (Affymetrix PrimeView) and GSEA
Type: cell-based, human
Parameters: RFU PODN (11730768_x_at) / Fold change /veh PODN (11730768_x_at) / RFU LINC00158 (11744669_a_at) / Fold change /veh LINC00158 (11744669_a_at) / RFU DUSP10 (11751237_a_at) / Fold change /veh DUSP10 (11751237_a_at) / RFU ID3 (11757404_x_at) / Fold change /veh ID3 (11757404_x_at) / RFU PLEKHG5 (11737974_s_at) / Fold change /veh PLEKHG5 (11737974_s_at) / RFU LRRC4B (11730491_at) / Fold change /veh LRRC4B (11730491_at) / RFU GIMAP4 (11747438_a_at) / Fold change /veh GIMAP4 (11747438_a_at) / RFU KRT8 (11758183_x_at) / Fold change /veh KRT8 (11758183_x_at) / RFU CNN1 (11734310_a_at) / Fold change /veh CNN1 (11734310_a_at) / RFU VPS37D (11726825_at) / Fold change /veh VPS37D (11726825_at) / RFU C10orf10 (11716522_x_at) / Fold change /veh C10orf10 (11716522_x_at) / RFU KIR2DL2 /// KIR2DL4 /// KIR2DL5A /// KIR2DL5B /// KIR2DS1 /// KIR2DS2 /// KIR2DS3 /// KIR2DS4 /// KIR3DL3 /// KIR3DL3 /// KIR3DS1 (11738374_at) / Fold change /veh KIR2DL2 /// KIR2DL4 /// KIR2DL5A /// KIR2DL5B /// KIR2DS1 /// KIR2DS2 /// KIR2DS3 /// KIR2DS4 /// KIR3DL3 /// KIR3DL3 /// KIR3DS1 (11738374_at) / RFU C1QL1 (11718748_at) / Fold change /veh C1QL1 (11718748_at) / RFU TMPRSS4 (11747572_a_at) / Fold change /veh TMPRSS4 (11747572_a_at) / RFU HAMP (11756126_x_at) / Fold change /veh HAMP (11756126_x_at) / RFU RNFT2 (11725882_a_at) / Fold change /veh RNFT2 (11725882_a_at) / RFU NR4A2 (11747474_a_at) / Fold change /veh NR4A2 (11747474_a_at) / RFU ABCC12 (11746883_a_at) / Fold change /veh ABCC12 (11746883_a_at) / RFU TMEM136 (11760407_x_at) / Fold change /veh TMEM136 (11760407_x_at) / RFU CLDN22 /// WWC2 (11732394_at) / Fold change /veh CLDN22 /// WWC2 (11732394_at) / RFU HLA-DPB1 (11760878_x_at) / Fold change /veh HLA-DPB1 (11760878_x_at) / RFU SPINT1 (11716480_a_at) / Fold change /veh SPINT1 (11716480_a_at) / RFU GAP43 (11754022_s_at) / Fold change /veh GAP43 (11754022_s_at) / RFU A4GNT (11735810_at) / Fold change /veh A4GNT (11735810_at) / RFU PRB3 (11715151_x_at) / Fold change /veh PRB3 (11715151_x_at) / RFU TUBB4B (11761932_at) / Fold change /veh TUBB4B (11761932_at) / RFU CAPN14 (11732068_a_at) / Fold change /veh CAPN14 (11732068_a_at) / RFU TMCC2 (11721928_a_at) / Fold change /veh TMCC2 (11721928_a_at) / RFU IRGQ (11745062_a_at) / Fold change /veh IRGQ (11745062_a_at) / RFU FAM174B (11720279_a_at) / Fold change /veh FAM174B (11720279_a_at) / RFU TMPRSS4 (11748680_a_at) / Fold change /veh TMPRSS4 (11748680_a_at) / RFU FAM212B (11763350_a_at) / Fold change /veh FAM212B (11763350_a_at) / RFU PLEKHG5 (11743358_a_at) / Fold change /veh PLEKHG5 (11743358_a_at) / RFU ZSCAN30 (11745921_a_at) / Fold change /veh ZSCAN30 (11745921_a_at) / RFU CMKLR1 (11741424_a_at) / Fold change /veh CMKLR1 (11741424_a_at) / RFU LOC101060620 /// MAPK8IP1 (11723275_at) / Fold change /veh LOC101060620 /// MAPK8IP1 (11723275_at) / RFU SPTSSB (11747773_x_at) / Fold change /veh SPTSSB (11747773_x_at) / RFU PRSS12 (11739890_at) / Fold change /veh PRSS12 (11739890_at) / RFU BIN1 (11741810_x_at) / Fold change /veh BIN1 (11741810_x_at) / RFU WNT11 (11732464_a_at) / Fold change /veh WNT11 (11732464_a_at) / RFU C10orf10 (11716521_a_at) / Fold change /veh C10orf10 (11716521_a_at) / RFU C5orf56 (11738089_at) / Fold change /veh C5orf56 (11738089_at) / RFU CYB561 (11721691_x_at) / Fold change /veh CYB561 (11721691_x_at) / RFU ANKRD19P (11752326_a_at) / Fold change /veh ANKRD19P (11752326_a_at) / RFU OR2T12 /// OR2T33 /// OR2T8 (11738714_s_at) / Fold change /veh OR2T12 /// OR2T33 /// OR2T8 (11738714_s_at) / RFU VCAN (11748164_a_at) / Fold change /veh VCAN (11748164_a_at) / RFU JSRP1 (11732532_at) / Fold change /veh JSRP1 (11732532_at) / RFU KRTAP10-11 (11738290_x_at) / Fold change /veh KRTAP10-11 (11738290_x_at) / RFU MYO3A (11730013_a_at) / Fold change /veh MYO3A (11730013_a_at) / RFU EBF3 (11725865_a_at) / Fold change /veh EBF3 (11725865_a_at) / RFU CAMK2N1 (11719241_x_at) / Fold change /veh CAMK2N1 (11719241_x_at) / RFU C5orf56 (11738088_a_at) / Fold change /veh C5orf56 (11738088_a_at) / RFU OLFML3 (11715873_a_at) / Fold change /veh OLFML3 (11715873_a_at) / RFU LOC100653217 /// NTM (11731650_a_at) / Fold change /veh LOC100653217 /// NTM (11731650_a_at) / RFU MAPK11 (11762145_a_at) / Fold change /veh MAPK11 (11762145_a_at) / RFU FIZ1 (11724087_x_at) / Fold change /veh FIZ1 (11724087_x_at) / RFU OASL (11726364_x_at) / Fold change /veh OASL (11726364_x_at) / RFU SOX15 (11748057_x_at) / Fold change /veh SOX15 (11748057_x_at) / RFU CD79A (11719716_a_at) / Fold change /veh CD79A (11719716_a_at) / RFU HIST1H1D (11736915_at) / Fold change /veh HIST1H1D (11736915_at) / RFU CASKIN2 (11723855_a_at) / Fold change /veh CASKIN2 (11723855_a_at) / RFU LOC730098 (11760151_x_at) / Fold change /veh LOC730098 (11760151_x_at) / RFU OR4N2 (11742367_at) / Fold change /veh OR4N2 (11742367_at) / RFU PRRT2 (11749266_a_at) / Fold change /veh PRRT2 (11749266_a_at) / RFU SNX32 (11753110_a_at) / Fold change /veh SNX32 (11753110_a_at) / RFU CDHR5 (11726645_a_at) / Fold change /veh CDHR5 (11726645_a_at) / RFU RCAN1 (11760418_a_at) / Fold change /veh RCAN1 (11760418_a_at) / RFU FAM167A (11723789_a_at) / Fold change /veh FAM167A (11723789_a_at) / RFU FAM26E (11764081_at) / Fold change /veh FAM26E (11764081_at) / RFU ISYNA1 (11749810_s_at) / Fold change /veh ISYNA1 (11749810_s_at) / RFU ACY1 (11761880_at) / Fold change /veh ACY1 (11761880_at) / RFU 11764098_at / Fold change /veh 11764098_at / RFU SAMD14 (11745864_x_at) / Fold change /veh SAMD14 (11745864_x_at) / RFU NPB (11741838_a_at) / Fold change /veh NPB (11741838_a_at) / RFU TMPRSS6 (11731388_a_at) / Fold change /veh TMPRSS6 (11731388_a_at) / RFU KRTAP10-2 (11738614_at) / Fold change /veh KRTAP10-2 (11738614_at) / RFU ARHGAP8 /// PRR5-ARHGAP8 (11727945_x_at) / Fold change /veh ARHGAP8 /// PRR5-ARHGAP8 (11727945_x_at) / RFU KRTAP5-7 /// NADSYN1 (11734609_at) / Fold change /veh KRTAP5-7 /// NADSYN1 (11734609_at) / RFU RASL12 (11751679_a_at) / Fold change /veh RASL12 (11751679_a_at) / RFU CDKN2B (11736163_a_at) / Fold change /veh CDKN2B (11736163_a_at) / RFU PRF1 (11729649_at) / Fold change /veh PRF1 (11729649_at) / RFU, ZNF638 /// ZNF638-IT1 / Fold change vs veh, ZNF638 /// ZNF638-IT1 / RFU, PANK3 / Fold change vs veh, PANK3 / RFU, SH3YL1 / Fold change vs veh, SH3YL1 / RFU, ZEB2 / Fold change vs veh, ZEB2 / RFU, NRIP1 / Fold change vs veh, NRIP1 / RFU, PTTG1IP / Fold change vs veh, PTTG1IP / RFU, CAPN2 / Fold change vs veh, CAPN2 / RFU, MED14 / Fold change vs veh, MED14 / RFU, SNORA58 / Fold change vs veh, SNORA58 / RFU, C1orf63 / Fold change vs veh, C1orf63 / RFU, LRRFIP1 / Fold change vs veh, LRRFIP1 / RFU, NDUFAF7 / Fold change vs veh, NDUFAF7 / RFU, SLC12A2 / Fold change vs veh, SLC12A2 / RFU, IBTK / Fold change vs veh, IBTK / RFU, ESF1 / Fold change vs veh, ESF1 / Fold change vs veh, TMEM50B / RFU, TAOK1 / Fold change vs veh, TAOK1 / RFU, ACBD3 / Fold change vs veh, ACBD3 / RFU, TMA16 / Fold change vs veh, TMA16 / RFU, RWDD3 / Fold change vs veh, RWDD3 / RFU, BCAT1 / Fold change vs veh, BCAT1 / RFU, EDEM3 / Fold change vs veh, EDEM3 / RFU, TMEM33 / Fold change vs veh, TMEM33 / RFU, WDR75 / Fold change vs veh, WDR75 / RFU, AHCTF1 / Fold change vs veh, AHCTF1 / RFU, TFRC / Fold change vs veh, TFRC / RFU, ZDHHC17 / Fold change vs veh, ZDHHC17 / RFU, NOM1 / Fold change vs veh, NOM1 / RFU, ARL8B / Fold change vs veh, ARL8B / RFU, ZBTB11 / Fold change vs veh, ZBTB11 / RFU, TAMM41 / Fold change vs veh, TAMM41 / RFU, KIAA1704 /// LOC100996395 / Fold change vs veh, KIAA1704 /// LOC100996395 / RFU, ING1 / Fold change vs veh, ING1 / RFU, TRMT61B / Fold change vs veh, TRMT61B / RFU, FUBP3 / Fold change vs veh, FUBP3 / RFU, TP53 / Fold change vs veh, TP53 / RFU, TNKS2 / Fold change vs veh, TNKS2 / RFU, ZFP14 / Fold change vs veh, ZFP14 / RFU, ACTR2 / Fold change vs veh, ACTR2 / RFU, PPP3R1 / Fold change vs veh, PPP3R1 / RFU, PIK3R1 / Fold change vs veh, PIK3R1 / RFU, HNRNPA1 / Fold change vs veh, HNRNPA1 / RFU, RNF170 / Fold change vs veh, RNF170 / RFU, ZNF28 / Fold change vs veh, ZNF28 / RFU, RNGTT / Fold change vs veh, RNGTT / RFU, OGT / Fold change vs veh, OGT / RFU, BRD1 / Fold change vs veh, BRD1 / RFU, MARS / Fold change vs veh, MARS / RFU, ZNF655 / Fold change vs veh, ZNF655 / RFU, FAHD1 / Fold change vs veh, FAHD1 / RFU, BDP1 / Fold change vs veh, BDP1 / RFU, LRRCC1 / Fold change vs veh, LRRCC1 / RFU, ARID1A / Fold change vs veh, ARID1A / RFU, ZNF146 / Fold change vs veh, ZNF146 / RFU, ZNF330 / Fold change vs veh, ZNF330 / RFU, GPN3 / Fold change vs veh, GPN3 / RFU, C9orf123 / Fold change vs veh, C9orf123 / RFU, N4BP2L2 / Fold change vs veh, N4BP2L2 / RFU, ARFIP1 / Fold change vs veh, ARFIP1 / RFU, FAM179B / Fold change vs veh, FAM179B / RFU, BCL10 / Fold change vs veh, BCL10 / RFU, UHRF1BP1L / Fold change vs veh, UHRF1BP1L / RFU, BET1 / Fold change vs veh, BET1 / RFU, CNOT2 / Fold change vs veh, CNOT2 / RFU, ZNF268 / Fold change vs veh, ZNF268 / Fold change vs veh, ZNF507 / RFU, DGCR2 / Fold change vs veh, DGCR2 / RFU, WDSUB1 / Fold change vs veh, WDSUB1 / Fold change vs veh, HSP90B1 /// MIR3652 / RFU, ADSS / Fold change vs veh, ADSS / RFU, GK / Fold change vs veh, GK / RFU, ZNF148 / Fold change vs veh, ZNF148 / RFU, TAF9 / Fold change vs veh, TAF9 / RFU, SLC1A5 / Fold change vs veh, SLC1A5 / RFU, SLMO2 / Fold change vs veh, SLMO2 / RFU, ABCC4 / Fold change vs veh, ABCC4 / RFU, LOC101060439 /// RAP1B / Fold change vs veh, LOC101060439 /// RAP1B / RFU, RFX7 / Fold change vs veh, RFX7 / RFU, GTPBP10 / Fold change vs veh, GTPBP10 / RFU, CNEP1R1 / Fold change vs veh, CNEP1R1 / RFU, BIVM-ERCC5 /// ERCC5 / Fold change vs veh, BIVM-ERCC5 /// ERCC5 / RFU, ILF3 / Fold change vs veh, ILF3 / RFU 11762660_at / Fold change /veh 11762660_at / RFU VCAN (11757783_s_at) / Fold change /veh VCAN (11757783_s_at) / RFU DDX43 (11728927_at) / Fold change /veh DDX43 (11728927_at) / RFU KRT8 (11758188_x_at) / Fold change /veh KRT8 (11758188_x_at) / RFU NKD1 (11759106_at) / Fold change /veh NKD1 (11759106_at) / RFU SRD5A1 (11742802_a_at) / Fold change /veh SRD5A1 (11742802_a_at) / RFU TPSAB1 /// TPSB2 (11721975_s_at) / Fold change /veh TPSAB1 /// TPSB2 (11721975_s_at) / RFU GSTM3 (11746129_a_at) / Fold change /veh GSTM3 (11746129_a_at) / RFU IL23R (11737362_x_at) / Fold change /veh IL23R (11737362_x_at) / RFU TMEM51 (11727254_a_at) / Fold change /veh TMEM51 (11727254_a_at) / RFU PIWIL2 (11732686_x_at) / Fold change /veh PIWIL2 (11732686_x_at) / RFU ORM1 (11744905_x_at) / Fold change /veh ORM1 (11744905_x_at) / RFU CCDC152 (11743942_at) / Fold change /veh CCDC152 (11743942_at) / RFU ECM1 (11717891_a_at) / Fold change /veh ECM1 (11717891_a_at) / RFU IL23R (11748794_a_at) / Fold change /veh IL23R (11748794_a_at) / RFU TNFAIP8L3 (11732012_x_at) / Fold change /veh TNFAIP8L3 (11732012_x_at) / RFU MBOAT4 (11741988_at) / Fold change /veh MBOAT4 (11741988_at) / RFU 11764193_at / Fold change /veh 11764193_at / RFU TMEM53 (11763286_at) / Fold change /veh TMEM53 (11763286_at) / RFU MAGEB2 (11727129_at) / Fold change /veh MAGEB2 (11727129_at) / RFU TMEM200A (11744735_a_at) / Fold change /veh TMEM200A (11744735_a_at) / RFU CCDC152 (11751479_a_at) / Fold change /veh CCDC152 (11751479_a_at) / RFU FAM211A (11726209_a_at) / Fold change /veh FAM211A (11726209_a_at) / RFU RGS16 (11746705_a_at) / Fold change /veh RGS16 (11746705_a_at) / RFU VCAN (11755009_s_at) / Fold change /veh VCAN (11755009_s_at) / RFU RHOB (11743442_s_at) / Fold change /veh RHOB (11743442_s_at) / RFU RGS16 (11720943_a_at) / Fold change /veh RGS16 (11720943_a_at) / RFU RGS16 (11720944_at) / Fold change /veh RGS16 (11720944_at) / RFU, VPS4B / Fold change vs veh, VPS4B / RFU, CREB1 / Fold change vs veh, CREB1 / RFU, DNAJC13 / Fold change vs veh, DNAJC13 / RFU, GNAQ / Fold change vs veh, GNAQ / RFU, CDK5R1 / Fold change vs veh, CDK5R1 / RFU, ZRANB3 / Fold change vs veh, ZRANB3 / RFU, CUL4A / Fold change vs veh, CUL4A / RFU, CCNY / Fold change vs veh, CCNY / RFU, UFL1 / Fold change vs veh, UFL1 / RFU, COG3 / Fold change vs veh, COG3 / RFU, DIAPH2 / Fold change vs veh, DIAPH2 / RFU, SKA2 / Fold change vs veh, SKA2 / RFU, AFF3 / Fold change vs veh, AFF3 / RFU, LMF1 / Fold change vs veh, LMF1 / RFU, IPO11 / Fold change vs veh, IPO11 / RFU, DFFB / Fold change vs veh, DFFB / RFU, FOXP1 / Fold change vs veh, FOXP1 / RFU, CARD8 / Fold change vs veh, CARD8 / RFU, STRN3 / Fold change vs veh, STRN3 / RFU, ADK / Fold change vs veh, ADK / RFU, RASSF2 / Fold change vs veh, RASSF2 / RFU, WIPF1 / Fold change vs veh, WIPF1 / RFU, LARP1B / Fold change vs veh, LARP1B / RFU, RASA1 / Fold change vs veh, RASA1 / RFU, RB1 / Fold change vs veh, RB1 / RFU, PPFIA1 / Fold change vs veh, PPFIA1 / RFU, MAT2A / Fold change vs veh, MAT2A / RFU, CCT5 / Fold change vs veh, CCT5 / RFU, WDR92 / Fold change vs veh, WDR92 / RFU, CUX1 / Fold change vs veh, CUX1 / RFU, TTC7A / Fold change vs veh, TTC7A / RFU, TMEM135 / Fold change vs veh, TMEM135 / RFU, DEPTOR / Fold change vs veh, DEPTOR / RFU, CPM / Fold change vs veh, CPM / RFU, DNAJB6 / Fold change vs veh, DNAJB6 / RFU, CACNA2D3 / Fold change vs veh, CACNA2D3 / RFU, DTX4 / Fold change vs veh, DTX4 / RFU, TFCP2 / Fold change vs veh, TFCP2 / RFU, GMCL1 /// GMCL1P1 / Fold change vs veh, GMCL1 /// GMCL1P1 / RFU, AEBP2 / Fold change vs veh, AEBP2 / RFU, SNHG1 /// SNORD22 /// SNORD25 /// SNORD26 /// SNORD27 /// SNORD28 /// SNORD29 /// SNORD31 / Fold change vs veh, SNHG1 /// SNORD22 /// SNORD25 /// SNORD26 /// SNORD27 /// SNORD28 /// SNORD29 /// SNORD31 / Fold change (Aza/veh), C12orf56 (ProbeSet 11735607_a_at) / Fold change (ACY-1035/veh), C12orf56 (ProbeSet 11735607_a_at) / Fold change (Aza/veh), FGFR1OP (ProbeSet 11751329_s_at) / Fold change (ACY-1035/veh), FGFR1OP (ProbeSet 11751329_s_at) / Fold change (Aza/veh), VPS36 (ProbeSet 11739960_a_at) / Fold change (ACY-1035/veh), VPS36 (ProbeSet 11739960_a_at) / RFU SYPL1 (11715823_x_at) / Fold change /veh SYPL1 (11715823_x_at) / RFU IGFBP7 (11715501_s_at) / Fold change /veh IGFBP7 (11715501_s_at) / RFU REEP3 (11722064_at) / Fold change /veh REEP3 (11722064_at) / RFU IGLL1 (11728026_x_at) / Fold change /veh IGLL1 (11728026_x_at): dose or concentration left out as unconfirmed
Details: ProbeSet 11743929_at; LIST B

For `Nc1ccc(-c2cccs2)cc1NC(=O)c1ccc2c(c1)cc(C1CC1)n2CCN1CCOCC1` [ACY-1035], which “RFU, UHRF1BP1L” value is on record?
Its value is 242.75 RFU.
